Measurements published in patent publication US6855714B2, “1-alkyl-2-aryl-benzimidazole derivatives, their use for the production of pharmaceutical agents as well as pharmaceutical preparations that contain these derivatives” (Schering Aktiengesellschaft, priority 2001, dated 2005).

Tested on: primary rat microglia
Test: Inhibition of microglia activation (Aβ peptide stimulation, MTS reduction)
Assay type: cell-based
Conditions: Aβ-activated primary rat microglia, MTS reduction on day 7, compound added on day 5; read-out: IC50 in the Microglia Inhibition Test
Procedure: For in vitro production of Aβ-activated microglia, primary rat microglia are incubated with synthetic Aβ peptide:
To simulate Aβ deposits, synthetic Aβ peptide is dried on 96-hole tissue culture plates. A peptide stock solution of 2 mg/ml of H2O 1:50 in H2O, is diluted in this. To coat the 96-hole plates, 30 μL of this dilute peptide solution/hole is used and dried overnight at room temperature.
Primary rat microglia are harvested from mixed glia cultures, which were obtained from P3 rat brains. For the production of mixed glia cultures, the brains are removed from 3-day-old rats and meninges are removed therefrom. The isolation of cells is achieved by trypsinization (0.25% trypsin solution, 15 minutes 37° C.)). After undigested tissue fragments are separated with the aid of a 40 µm nylon mesh, the isolated cells are centrifuged off (800 rpm/10 minutes). The cell pellet is resuspended in culture medium and moved into 100 ml tissue culture flasks (1 brain/tissue culture flask). […]
To quantify the microglia reactivity, the metabolic activity is measured on cultivation day 7 via the reduction of MTS (3-(4,5-dimethylthiazol-2-yl)-5-(3carboxymethoxyphenyl)-2-(sulfophenyl)-2H-tetrazolium), Owen's reagent, Baltrop, J. A. et al., Bioorg. & Med. Chem. Lett., 1, 6111 (1991)). […]

Row | SMILES | IC50 [µM]
1 | COCCCn1c(-c2ccccc2)nc2ccc(OCCCCCC(=O)OC)cc21 [6-[(5-(Methoxycarbonyl)pentyl)oxy]-1-(3-methoxy-n-propyl)-2-phenyl-benzimidazole] | 0.65
2 | COC(=O)CCCCCOc1ccc2nc(-c3ccc(OC)cc3)n(CCCN(C)C(C)=O)c2c1 [6-[(5-(Methoxycarbonyl)pentyl)oxy]-2-(4-methoxy-phenyl)-1-[3-(N-methyl-N-(methylcarbonyl)amino)propyl]-benzimidazole] | 0.39
